Experimental data from ChEMBL document CHEMBL3639186, “Modulators of serotonin receptor” (2013).

Target: 5-hydroxytryptamine receptor 7 (Rattus norvegicus, UniProt P32305)
Assay: Biological Assay: Compound affinity for the rat 5-HT7 receptor subtype was evaluated by competitive radioligand binding assay using 5-carboxamido[H3]typtamine ([3H]5-CT)(Amersham Biosciences) detection.

Chain of 5-hydroxytryptamine receptor 7 (P32305 whole entry): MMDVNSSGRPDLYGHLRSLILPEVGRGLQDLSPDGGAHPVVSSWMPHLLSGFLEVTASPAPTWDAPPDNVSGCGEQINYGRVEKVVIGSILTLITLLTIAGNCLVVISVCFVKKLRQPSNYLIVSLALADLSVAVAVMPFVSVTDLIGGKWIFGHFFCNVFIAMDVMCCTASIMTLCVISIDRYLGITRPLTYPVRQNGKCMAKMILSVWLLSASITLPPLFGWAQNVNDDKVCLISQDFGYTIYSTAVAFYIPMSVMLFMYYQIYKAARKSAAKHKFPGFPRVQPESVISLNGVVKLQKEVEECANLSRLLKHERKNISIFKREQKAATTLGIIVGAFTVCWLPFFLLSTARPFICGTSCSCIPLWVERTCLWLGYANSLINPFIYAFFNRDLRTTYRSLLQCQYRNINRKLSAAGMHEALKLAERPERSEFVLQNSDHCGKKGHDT

Ki: ≥ 10 µM
Structure (SMILES): Cc1cc(C#N)c(OC2CNC2)cc1-c1ccccc1
